Series [1] in a line: Oral bioavailability in Sprague-Dawley rat at 2.6 mg/kg measured upto 24 hrs by LCMS/MS analysis. The series is classed as ADME, organism-based. The following applies: in vivo.
The nature of series [2]: Solubility in phosphate buffer at pH 6.5 measured after 24 hrs by HPLC-UV analysis. In kind it is physicochemical.
Series [3] can be described thus: Solubility in phosphate buffer at pH 2 measured after 24 hrs by HPLC-UV analysis. In kind it is physicochemical.
Series [4] can be described thus: Metabolic stability in human liver microsomes assessed as apparent clearance at 0.5 uM measured upto 40 mins in presence of NADPH by LCMS/MS analysis. In kind it is ADME, Microsome. The following applies: read-out: CLH.
Series [5] can be described thus: Inhibition of IL-8 release in glycosylated IL-17A/TNFalpha-stimulated human HEKa incubated for 72 hrs under serum free medium by AlphaLISA. In kind it is functional, cell-based.
Series [6] is described as follows: Clearance in Sprague-Dawley rat at 0.1 mg/kg, iv measured upto 24 hrs by LCMS/MS analysis. In kind it is ADME, organism-based. To be noted: in vivo.
Series [7] in a line: Solubility in phosphate buffer at pH 7.4 measured after 24 hrs by HPLC-UV analysis. In kind it is physicochemical.
A short description of series [8]: Volume of distribution at steady state in Sprague-Dawley rat at 0.1 mg/kg, iv measured upto 24 hrs by LCMS/MS analysis. The series is classed as ADME, organism-based. The following applies: in vivo, read-out: Vdss.
Series [9] is described as follows: Half life in Sprague-Dawley rat at 0.1 mg/kg, iv measured upto 24 hrs by LCMS/MS analysis. The series is classed as ADME, organism-based. To be noted: in vivo.
Series [10] can be described thus: Apparent permeability of compound in human Caco2 cells from apical to basal. The following applies: Caco-2. The series is classed as ADME, cell-based.
Series [11] can be described thus: Protein binding in human plasma assessed as unbound fraction at 1 uM by LCMS/MS analysis. The series is classed as ADME, cell-free.
Series [12] can be described thus: Apparent permeability of compound in human Caco2 cells from basal to apical. To be noted: Caco-2. In kind it is ADME, cell-based.
Series [13] can be described thus: Inhibition of IL-8 release in non-glycosylated IL-17A/TNFalpha-stimulated human HEKa incubated for 72 hrs under serum free medium by AlphaLISA. The series is classed as functional, cell-based.
Series [14] in a line: Inhibition of IL-8 release in non-glycosylated IL-17A/TNFalpha-stimulated human HEKa cells at 0.6 uM incubated for 72 hrs under serum free medium by AlphaLISA. The series is classed as functional.
Series [15] is described as follows: Inhibition of IL-8 release in glycosylated IL-17A/TNFalpha-stimulated human HEKa cells at 10 uM incubated for 72 hrs under serum free medium by AlphaLISA. In kind it is functional.
The target of series [16] is Voltage-gated inwardly rectifying potassium channel KCNH2 (Homo sapiens, UniProt Q12809). The experiment in a line: Inhibition of human ERG. In kind it is toxicity.
Chain of Voltage-gated inwardly rectifying potassium channel KCNH2 (Q12809 whole entry): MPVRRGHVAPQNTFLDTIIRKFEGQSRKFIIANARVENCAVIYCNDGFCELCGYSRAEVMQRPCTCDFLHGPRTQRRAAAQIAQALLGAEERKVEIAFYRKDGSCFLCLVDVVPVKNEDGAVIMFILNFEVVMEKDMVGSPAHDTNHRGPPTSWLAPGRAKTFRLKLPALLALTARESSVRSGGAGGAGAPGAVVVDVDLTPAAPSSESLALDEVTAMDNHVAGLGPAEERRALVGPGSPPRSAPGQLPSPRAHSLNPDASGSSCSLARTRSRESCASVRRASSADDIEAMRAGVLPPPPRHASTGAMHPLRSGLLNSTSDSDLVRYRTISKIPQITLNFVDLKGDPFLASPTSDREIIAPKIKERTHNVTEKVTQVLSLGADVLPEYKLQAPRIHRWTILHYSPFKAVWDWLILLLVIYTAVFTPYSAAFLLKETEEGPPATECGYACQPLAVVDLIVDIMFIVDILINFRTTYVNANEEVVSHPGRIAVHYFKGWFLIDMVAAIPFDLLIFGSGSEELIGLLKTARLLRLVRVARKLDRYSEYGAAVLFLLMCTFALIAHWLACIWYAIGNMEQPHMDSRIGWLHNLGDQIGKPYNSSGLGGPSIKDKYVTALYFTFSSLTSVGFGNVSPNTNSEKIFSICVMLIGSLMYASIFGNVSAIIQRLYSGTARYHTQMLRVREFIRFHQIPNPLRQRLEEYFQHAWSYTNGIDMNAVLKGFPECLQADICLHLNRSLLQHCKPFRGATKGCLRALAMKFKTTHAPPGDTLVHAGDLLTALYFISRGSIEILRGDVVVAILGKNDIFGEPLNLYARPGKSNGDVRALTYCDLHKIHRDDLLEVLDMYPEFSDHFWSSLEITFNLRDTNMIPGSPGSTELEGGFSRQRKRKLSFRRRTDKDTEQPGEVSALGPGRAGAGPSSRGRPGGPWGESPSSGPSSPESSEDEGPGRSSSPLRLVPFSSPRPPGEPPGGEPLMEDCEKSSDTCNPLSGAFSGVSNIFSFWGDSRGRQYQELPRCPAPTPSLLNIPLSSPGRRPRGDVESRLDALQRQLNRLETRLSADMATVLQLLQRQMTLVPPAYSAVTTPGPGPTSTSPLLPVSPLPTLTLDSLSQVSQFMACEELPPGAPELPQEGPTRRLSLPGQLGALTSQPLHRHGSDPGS
Another series has as its target T1, Interleukin-17A (Homo sapiens, UniProt Q16552).
T1 sequence (Q16552 whole entry): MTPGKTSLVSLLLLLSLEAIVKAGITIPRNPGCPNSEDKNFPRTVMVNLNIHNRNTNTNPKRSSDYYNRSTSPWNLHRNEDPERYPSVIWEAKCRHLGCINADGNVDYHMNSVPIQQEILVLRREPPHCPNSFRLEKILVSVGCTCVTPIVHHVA
The series can be described thus: Binding affinity to human IL-17A assessed as thermal stability by measuring increase in unfolding temperature by differential scanning fluorimetry.

The nature of series [17]: Inhibition of IL-8 release in non-glycosylated IL-17A/TNFalpha-stimulated human HEKa cells at 6 uM incubated for 72 hrs under serum free medium by AlphaLISA. The series is classed as functional.

Each structure is given as a SMILES string. ≈ marks a conversion by molar mass, not a printed value.

The results in this text go back to ChEMBL document CHEMBL5131568, “Discovery of an Oral, Rule of 5 Compliant, Interleukin 17A Protein-Protein Interaction Modulator for the Potential Treatment of Psoriasis and Other Inflammatory Diseases” (J Med Chem, 2022).

With `Cc1n[nH]c(C)c1-c1ccc(NC(=O)[C@@H](NC(=O)c2ccnn2C)C(c2ccccc2)c2ccccc2)cc1`, the bioavailability in series [1] stood at 26%. Also, the solubility at 24 h in [2] is below 0.001 mg/mL; in series [3], 0.025 mg/mL (≈ 48.2 µM); in series [7], below 0.001 mg/mL. Also, in series [4], the CLint scaled at 0.5 µM is below 0.48 L/h/kg. Further, a half-maximal effect in series [5] (EC50) was put at 0.117 µM. In [6], this molecule returned a clearance of 0.42 L/h/kg. Further, the Vd in [8] turned out to be 2 L/kg. For the same molecule, the half-life in series [9] was 3.2 h. The Papp A→B in series [10] worked out at 160 nm/s. Moreover, the free fraction (fraction unbound) at 1 µM in series [11] was determined as 0.0011. Besides, in [12], the Papp B→A was 210 nm/s.
Take `Cc1n[nH]c(C)c1-c1ccc(NC(=O)C(NC(=O)c2ccnn2C)C2CCC3(CC2)CC3)cc1` (stereo not given): the CLint scaled at 0.5 µM in series [4] is below 0.48 L/h/kg. This molecule also showed an EC50 in [13] of 0.296 µM.
As for `Cc1n[nH]c(C)c1-c1ccc(NC(=O)[C@@H](NC(=O)c2ccnn2C)C(C2CCC2)C2CCC2)cc1`, in series [4], the CLint scaled at 0.5 µM came to 0.54 L/h/kg. Further, in series [13], the midpoint of the response, the EC50, lay at 0.01 µM.
As for `CCn1nccc1C(=O)N[C@H](C(=O)Nc1ccc(-c2c(C)n[nH]c2C)cc1)C(C1CC1)C1CC1`, the CLint scaled at 0.5 µM in [4] was below 0.48 L/h/kg. The same molecule showed an EC50 in series [13] of 0.026 µM.
As for `Cn1nccc1C(=O)N[C@H](C(=O)Nc1ccc(-c2cn[nH]c2)cc1)C(c1ccccc1)c1ccccc1`, in [4], the CLint scaled at 0.5 µM was below 0.48 L/h/kg. In series [5], this molecule displayed an EC50 of 3.38 µM.
For the molecule `CC(C)[C@H](NC(=O)COCCNC(=O)OC(C)(C)C)C(=O)N[C@@H](CC(=O)O)Cc1ccc(NC(=O)[C@H](Cc2ccccc2Cl)NC(=O)C(F)(F)c2ccccc2)cc1`, in [4], the CLint scaled at 0.5 µM turned out to be 1.98 L/h/kg. The EC50 in series [13] stood at 0.575 µM.
`Cc1n[nH]c(C)c1-c1ccc(NC(=O)[C@@H](NC(=O)c2ccnn2C)c2ccccc2)cc1`: the CLint scaled at 0.5 µM in series [4] is below 0.48 L/h/kg. In series [14], the inhibition at 0.6 µM was determined as 28%.
With `Cn1cnnc1-c1ccc(NC(=O)[C@@H](NC(=O)c2ccnn2C)C(c2ccccc2)c2ccccc2)cc1`, the CLint scaled at 0.5 µM in series [4] is below 0.48 L/h/kg. Also, the inhibition at 10 µM in series [15] stood at 47%.
With `Cc1n[nH]c(C)c1-c1ccc(NC(=O)[C@@H](NC(=O)c2ccnn2C(C)C)C(C2CC2)C2CC2)cc1`, in series [1], the bioavailability is 100%. The solubility at 24 h was below 0.001 mg/mL in series [2], 0.04 mg/mL (≈ 84.3 µM) in series [3] and below 0.001 mg/mL in series [7]. Moreover, the CLint scaled at 0.5 µM in series [4] was below 0.48 L/h/kg. The same molecule gave a 50% inhibitory concentration (IC50) in [16] above 30 µM. In [6], this molecule showed a clearance of 0.444 L/h/kg. For the same molecule, the Vd in series [8] was 2.6 L/kg. This molecule also showed a half-life in series [9] of 3.7 h. In addition, the Kd at Interleukin-17A turned out to be 0.032 µM. Besides, in series [10], the Papp A→B turned out to be 380 nm/s. In series [11], the fraction unbound at 1 µM stood at 0.017. The molecule further showed an EC50 in [13] of 0.015 µM. The Papp B→A in series [12] is 260 nm/s.
`O=C1CNC(=O)[C@@H](Cc2ccc(NC(=O)[C@H](Cc3ccccc3Cl)NC(=O)Cc3ccccc3)cc2)NC(=O)CC2(CCCC2)CC(=O)NCCCCCN1`: the CLint scaled at 0.5 µM in [4] was above 12 L/h/kg. The EC50 was 1.92 µM in series [5] and 0.151 µM in series [13].
As for `CCn1nccc1C(=O)N[C@H](C(=O)Nc1ccc(-c2c(C)n[nH]c2C)cc1)C(C1CCC1)C1CCC1`, the CLint scaled at 0.5 µM in [4] came out at 2.64 L/h/kg. For the same molecule, in series [13], a half-maximal effect (EC50) was put at 0.0055 µM.
On to `Cc1n[nH]c(C)c1-c1ccc(NC(=O)[C@@H](NC(=O)c2ccnn2C(C)C)C(C2CCC2)C2CCC2)cc1`, for which the CLint scaled at 0.5 µM in series [4] was 3.12 L/h/kg. This molecule also yielded a concentration giving a half-maximal response (EC50) in series [13] of 0.0045 µM.
On to `Cn1cncc1-c1ccc(NC(=O)[C@@H](NC(=O)c2ccnn2C)C(c2ccccc2)c2ccccc2)cc1`, for which the CLint scaled at 0.5 µM in series [4] turned out to be 1.26 L/h/kg. Further, the 50% effective concentration (EC50) in series [5] was determined as 0.947 µM.
Turning to `Cc1n[nH]c(C)c1-c1ccc(NC(=O)[C@@H](NC(=O)c2ccnn2C)C2CCCCC2)cc1`, the CLint scaled at 0.5 µM in [4] is below 0.48 L/h/kg. Also, the EC50 in [13] turned out to be 0.208 µM.
On to `Cc1n[nH]c(C)c1-c1ccc(NC(=O)[C@H](Cc2ccccc2Cl)NC(=O)c2ccnn2C)cc1`, for which, in [4], the CLint scaled at 0.5 µM turned out to be 1.44 L/h/kg. The molecule also showed an EC50 in series [13] of 1.1 µM.
For `Cc1n[nH]c(C)c1-c1ccc(NC(=O)[C@H](Cc2ccccc2)NC(=O)c2ccnn2C)cc1`, the CLint scaled at 0.5 µM in series [4] came out at 0.72 L/h/kg. Further, in series [17], the inhibition at 6 µM was determined as 37%.
As for `Cc1n[nH]c(C)c1-c1ccc(NC(=O)[C@@H](NC(=O)c2ccnn2C)C(C2CC2)C2CC2)cc1`, in series [4], the CLint scaled at 0.5 µM is below 0.48 L/h/kg. In series [13], this molecule gave an EC50 of 0.053 µM.
Consider `Cc1[nH]ncc1-c1ccc(NC(=O)[C@@H](NC(=O)c2ccnn2C)C(c2ccccc2)c2ccccc2)cc1`, for which, in series [4], the CLint scaled at 0.5 µM is below 0.48 L/h/kg. The molecule also gave an EC50 in series [5] of 0.385 µM.
As to `Cc1n[nH]c(C)c1-c1ccc(NC(=O)[C@H](CC2CCCCC2)NC(=O)c2ccnn2C)cc1`, in [4], the CLint scaled at 0.5 µM was found to be 3.42 L/h/kg. Further, the EC50 in series [13] was 0.935 µM.
In the case of `Cc1ncn(C)c1-c1ccc(NC(=O)[C@@H](NC(=O)c2ccnn2C)C(c2ccccc2)c2ccccc2)cc1`, in series [4], the CLint scaled at 0.5 µM was determined as 5.64 L/h/kg. In addition, it took 0.304 µM to reach a half-maximal effect in series [5] (EC50).
For the molecule `Cc1n[nH]c(C)c1-c1ccc(NC(=O)[C@@H](NC(=O)c2ccnn2C)[C@H]2CC[C@H](C)CC2)cc1`, in [4], the CLint scaled at 0.5 µM was below 0.48 L/h/kg. In series [13], this molecule came in with an EC50 of 0.05 µM.
Regarding `CN(C)C(=O)c1ccc(NC(=O)[C@@H](NC(=O)c2ccnn2C)C(c2ccccc2)c2ccccc2)cc1`, the CLint scaled at 0.5 µM in series [4] is below 0.48 L/h/kg. Besides, in [15], the inhibition at 10 µM was 52%. In series [13], this molecule had an EC50 of 5.61 µM.
On to `Cc1n[nH]c(C)c1-c1ccc(NC(=O)[C@@H](NC(=O)c2ccnn2C)C2CCCCCC2)cc1`, for which, in [4], the CLint scaled at 0.5 µM is 6.3 L/h/kg. This molecule also came in with an EC50 in series [13] of 0.036 µM.
